Measurements from patent US9161502B2, “Brassica juncea lines with a canola fatty acid profile” (PIONEER HI BRED INTERNATIONAL INC, priority 2007, dated 2015).

Tested on: B. juncea seed
Experiment: EMS kill curves: germination of B. juncea seed treated with various concentrations of EMS
Type: in vivo, Brassica juncea
Conditions: for % germination: seeds soaked 18 hours, germination box 25° C., 7 days
Experimental: A bulk population (99SJ-1309) was created for this experiment from 8 different low glucosinolate and low erucic acid B. juncea breeding lines. These lines were selected for a range of quality and agronomic traits such as oil content and seed size. 500 seeds of the bulk population were used for each treatment of the following experiment. The seeds were soaked in various concentrations EMS for 18 hours and then washed 3 times. A sub-sample of 100 seeds was placed in a germination box at 25° C. for 7 days. After 7 days, the number of seeds that germinated and produced a healthy radicle was calculated. All seeds that were treated with EMS took at least 2 days longer to germinate than controls.
EMS treatment of seed affected the germination rate (FIG. 1, Table 2 and Table 3). […] This experiment was not replicated. Its purpose was to evaluate the effect of EMS on seed germination rate. The first experiment was designed to test a broad range of EMS application rates and the second experiment was to reduce the range of EMS treatment to develop the desirable mutations (Table 3).

In the case of `CCOS(C)(=O)=O` [EMS, ethyl methane sulfonate], the “germination rate versus expectation” value (0.36% EMS treatment rate) is reported as “much lower germination rate than expected”, the germination rate (0.48% EMS, text summary of Experiment 1) is reported as “approximately 50%” and the “delay of germination versus controls” value (all seeds treated with EMS) is reported as “at least 2 days”. For the same compound, the germination rates (highest concentrations of EMS) was “less than 50%”, the “% germination” value (kill curve #1 (Treatment 1), EMS 0.16% w/v) was 93% and the “% germination” value (kill curve #1 (Treatment 1), EMS 0.33% w/v) was 90%. For the same compound, the “% germination” value (kill curve #1 (Treatment 1), EMS 0.48% w/v) was 61%, the “% germination” value (kill curve #1 (Treatment 1), EMS 0.64% w/v) was 39% and the “% germination” value (kill curve #2 (Treatment 2), EMS 0.36% w/v) was 57%. The “% germination” value (kill curve #2 (Treatment 2), EMS 0.42% w/v) was 68%, the “% germination” value (kill curve #2 (Treatment 2), EMS 0.48% w/v) was 43% and the “% germination” value (kill curve #2 (Treatment 2), EMS 0.56% w/v) was 46%. The “effect on germination rate” value (lowest concentrations (0.16 and 0.33%)) was “little effect on germination rate”.
